In ChEMBL document CHEMBL1142732, “In-depth study of tripeptide-based alpha-ketoheterocycles as inhibitors of thrombin. Effective utilization of the S1' subsite and its implications to structure-based drug design” (J Med Chem, 2005):

Assays:
Serine protease 1 [1] = molecular target: T1, Serine protease 1 (Bos taurus, UniProt P00760); experiment: Binding affinity against bovine trypsin; NA=Not active at 1 uM
T1 sequence (P00760 whole entry): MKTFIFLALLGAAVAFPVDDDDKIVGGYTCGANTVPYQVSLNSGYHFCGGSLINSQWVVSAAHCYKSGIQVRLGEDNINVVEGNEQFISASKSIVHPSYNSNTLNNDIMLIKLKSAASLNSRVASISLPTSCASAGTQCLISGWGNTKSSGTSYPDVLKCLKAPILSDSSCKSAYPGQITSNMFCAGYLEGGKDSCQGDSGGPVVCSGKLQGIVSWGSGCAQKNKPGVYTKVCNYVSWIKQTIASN

Serine protease 1 [2] = molecular target: T1, Serine protease 1; experiment: Inhibitory concentration against bovine trypsin; NT=Not determined
Serine protease 1 [3] = molecular target: T1, Serine protease 1; experiment: Binding affinity against bovine trypsin
Prothrombin [4] = molecular target: T2, Prothrombin (Homo sapiens, UniProt P00734); experiment: Inhibitory concentration against human alpha thrombin
Homo sapiens [5] = species on record: Homo sapiens; experiment: Inhibitory concentration against gel filtered platelet aggregation induced by alpha thrombin; type: functional
Prothrombin [6] = molecular target: T2, Prothrombin; experiment: Inhibition constant against human alpha thrombin
Prothrombin [7] = molecular target: T2, Prothrombin; experiment: Binding affinity determined against human alpha thrombin
Cavia porcellus [8] = experiment: Percent change in blood pressure in guinea pig at 3 mg/kg dose
Serine protease 1 [9] = molecular target: T1, Serine protease 1; experiment: Inhibitory concentration against bovine trypsin; Not determined
Serine protease 1 [10] = molecular target: T1, Serine protease 1; experiment: Inhibitory concentration against bovine trypsin
Prothrombin [11] = molecular target: T2, Prothrombin; experiment: Binding affinity against human alpha thrombin; […]
Canis familiaris = experiment: In vivo effective intravenous dose for that reduces thrombus weight accumulation on a silk fiber by 50% was determined in Dog arteriovenous shunt model; type: functional; details: Canis lupus familiaris
Homo sapiens [12] = species on record: Homo sapiens; experiment: Inhibitory concentration of the compound was determined against gel filtered platelet aggregation induced by alpha thrombin; type: functional
[13] = Half life was determined in rat after an intravenous dose of 1 mg/kg; type: ADME, organism-based; design: dose 1 mg/kg, route intravenous; details: in vivo
[14] = Oral half life was determined in conscious rat after 10 mg/kg dosage through gavage; type: ADME, organism-based; design: dose 10 mg/kg; details: in vivo
[15] = Oral bioavailability was determined in conscious rat after 10 mg/kg dosage through gavage; type: ADME, organism-based; details: in vivo
Cavia porcellus [16] = species on record: Cavia porcellus; experiment: animal or person; details: Blood, iv
Description: In vivo effective intravenous dose for eliciting a 25% decrease in blood pressure in anesthetized Guinea pig

Cavia porcellus [17] = experiment: Percent change in blood pressure in guinea pig at 10 mg/kg dose
Oryctolagus cuniculus = experiment: In vivo effective intravenous dose for that was determined in Rabbit deep vein thrombosis model
Prothrombin [18] = molecular target: T2, Prothrombin; experiment: Inhibitory concentration against human alpha thrombin; NA=Not active at 1 uM
Prothrombin [19] = molecular target: T2, Prothrombin; experiment: Inhibitory concentration against human alpha thrombin; NT=Not active at 300 uM
Serine protease 1 [20] = molecular target: T1, Serine protease 1; experiment: Binding affinity against bovine trypsin; NT=Not active at 100 uM
Prothrombin [21] = molecular target: T2, Prothrombin; experiment: Binding affinity against human alpha thrombin; SB = slow-binding kinetics
Prothrombin [22] = molecular target: T2, Prothrombin; experiment: Inhibitory concentration against human alpha thrombin; NA = Not active at 1 uM
Cavia porcellus [23] = experiment: Percent change in blood pressure in guinea pig at 1 mg/kg dose
Serine protease 1 [24] = molecular target: T1, Serine protease 1; experiment: Inhibitory concentration against bovine trypsin; ND=Not determined
Cavia porcellus [25] = experiment: Percent change in blood pressure in guinea pig at 20 mg/kg dose
Prothrombin [26] = molecular target: T2, Prothrombin; experiment: Binding affinity against human alpha thrombin; SB = Slow-binding
Cavia porcellus [27] = experiment: Cardiovascular safety ratio ratiod (ED-25:ED50) estimation, which is based on a comparison of the hypotensive response in anesthetized guinea pigs to the anticoagulant / antithrombotic response in dogs; type: functional
Cavia porcellus [28] = experiment: Cardiovascular safety ratio ratiod (ED-25:ED50) estimation, which is based on a comparison of the hypotensive response in anesthetized guinea pigs to the anticoagulant / antithrombotic response in rabbit; type: functional

Structure (SMILES): CCCC[C@H](NC(=O)[C@@H]1CCCN1C(=O)[C@@H](Cc1ccccc1)NC)C(=O)c1nc2ccccc2s1
- Ki (Serine protease 1 [1]): Not Active

Structure (SMILES): CN[C@H](Cc1ccccc1)C(=O)N1CCC[C@H]1C(=O)N[C@@H](CCCN=C(N)N)Cc1nc2ccccc2s1
- IC50 (Serine protease 1 [2]): 32000 nM

Structure (SMILES): CN[C@H](Cc1ccccc1)C(=O)N[C@H](C(=O)NC(CCCN=C(N)N)C(=O)c1nc2ccccc2s1)C(C)C (stereo partly drawn)
- Ki (Serine protease 1 [3]): 1.5 nM
- IC50 (Prothrombin [4]): 440 nM
- IC50 (Homo sapiens [5]): 180 nM
- Ki (Prothrombin [6]): 21 nM
- Ki (Prothrombin [7]): 21 nM
- Delta BP (Cavia porcellus [8]): -47%

Structure (SMILES): CN[C@H](Cc1ccccc1)C(=O)N1CCC[C@H]1C(=O)N[C@H](CCCN=C(N)N)Cc1nc2ccccc2s1
- IC50 (Serine protease 1 [9]): 30000 nM

Structure (SMILES): N=C(N)NCCCC(NC(=O)[C@@H]1CCCN1C(=O)N[C@H](C=O)Cc1ccccc1)C(=O)c1nc2ccccc2s1 (stereo partly drawn)
- IC50 (Serine protease 1 [10]): 5.8 nM
- IC50 (Prothrombin [4]): 17000 nM

Structure (SMILES): CN[C@@H](C(=O)N1CCC[C@H]1C(=O)NC(CCCN=C(N)N)C(=O)c1nc2ccccc2s1)C(c1ccccc1)c1ccccc1 (stereo partly drawn)
- Ki (Prothrombin [11]): Slow Binding
- IC50 (Serine protease 1 [10]): 352 nM
- IC50 (Prothrombin [4]): 4.5 nM
- IC50 (Homo sapiens [5]): 43 nM
- Delta BP (Cavia porcellus [8]): -54%

Structure (SMILES): CN[C@H](Cc1ccccc1)C(=O)N1CCC[C@H]1C(=O)NC(CCCN=C(N)N)C(=O)c1nc2ccc(C(=O)O)cc2s1 (stereo partly drawn)
- Ki (Serine protease 1 [3]): 2.7 nM
- ED50 (Canis familiaris): 0.14 mg/kg
- IC50 (Homo sapiens [12]): 41 nM
- half-life [13]: 25 min
- half-life [14]: 60 min
- bioavailability [15]: 3%
- ED25 (Cavia porcellus [16]): 13 mg/kg
- Delta BP (Cavia porcellus [17]): -32%
- ED50 (Oryctolagus cuniculus): 0.43 mg/kg

Structure (SMILES): CN[C@H](Cc1ccccc1)C(=O)N1CCC[C@H]1C(=O)N[C@@H](Cc1ccccc1)C(=O)c1nc2ccccc2s1
- Ki (Serine protease 1 [3]): 12000 nM
- IC50 (Prothrombin [18]): Not Active
- Ki (Prothrombin [7]): 7100 nM

Structure (SMILES): N=C(N)NCCCCC(=O)c1nc2ccccc2s1
- IC50 (Prothrombin [19]): Not Active
- Ki (Serine protease 1 [20]): Not Active

Structure (SMILES): CNCCCC[C@@H](NC(=O)[C@@H]1CCCN1C(=O)[C@@H](Cc1ccccc1)NC)C(=O)c1nc2ccccc2s1
- Ki (Serine protease 1 [3]): 1000 nM
- IC50 (Prothrombin [18]): Not Active
- Ki (Prothrombin [7]): 3500 nM

Structure (SMILES): N=C(N)NCCCC(NC(=O)[C@@H]1CCCN1C(=O)CC(c1ccccc1)c1ccccc1)C(=O)c1nc2ccccc2s1 (stereo partly drawn)
- Ki (Serine protease 1 [3]): 22 nM
- IC50 (Prothrombin [4]): 11 nM
- IC50 (Homo sapiens [5]): 29 nM
- Ki (Prothrombin [6]): 3.1 nM
- Ki (Prothrombin [7]): 1.1 nM
- Delta BP (Cavia porcellus [8]): -25%

Structure (SMILES): CN[C@H](Cc1ccccc1)C(=O)N1CCC[C@H]1C(=O)NC(CCCN=C(N)N)C(=O)c1nc2ccc(C(N)=O)cc2s1 (stereo partly drawn)
- Ki (Serine protease 1 [3]): 0.3 nM
- Ki (Prothrombin [11]): Slow Binding

Structure (SMILES): NC(N)=NCCCC(NC(=O)[C@@H]1CCCN1C(=O)[C@H](N)Cc1ccccc1)C(=O)c1nc2ccccc2s1 (stereo partly drawn)
- Ki (Serine protease 1 [3]): 0.3 nM
- Ki (Prothrombin [21]): Slow Binding

Structure (SMILES): CNCCCC[C@H](NC(=O)[C@@H]1CCCN1C(=O)[C@@H](Cc1ccccc1)NC)C(=O)c1nc2ccccc2s1
- Ki (Serine protease 1 [3]): 1200 nM
- IC50 (Prothrombin [22]): Not Active
- IC50 (Homo sapiens [5]): 5200 nM
- Ki (Prothrombin [7]): 3700 nM
- Delta BP (Cavia porcellus [23]): -16%

Structure (SMILES): CN[C@H](Cc1ccccc1)C(=O)N1CCC[C@H]1C(=O)N[C@@H](CCCCN=C(N)N)C(=O)c1nc2ccccc2s1
- IC50 (Serine protease 1 [10]): 630 nM
- IC50 (Prothrombin [4]): 8400 nM

Structure (SMILES): CN[C@H](Cc1ccccc1)C(=O)N1CCC[C@H]1C(=O)N[C@@H](C(=O)c1nc2ccccc2s1)C1CCC(CN)CC1 (stereo partly drawn)
- Ki (Serine protease 1 [3]): 4000 nM
- IC50 (Prothrombin [18]): Not Active
- Ki (Prothrombin [7]): 1450 nM

Structure (SMILES): CN[C@H](Cc1ccccc1)C(=O)N1CCC[C@H]1C(=O)N[C@@H](CCCN=C(N)N)C(=O)c1nc2ccccc2s1
- IC50 (Prothrombin [4]): 29 nM
- ED50 (Canis familiaris): 0.46 mg/kg
- IC50 (Homo sapiens [5]): 32 nM
- Ki (Prothrombin [6]): 0.18 nM
- ED25 (Cavia porcellus [16]): 0.9 mg/kg
- Delta BP (Cavia porcellus [8]): -85%
- ED50 (Oryctolagus cuniculus): 0.25 mg/kg

Structure (SMILES): CN[C@H](Cc1ccccc1)C(=O)N1CCC[C@H]1C(=O)N[C@H](CC(=O)c1nc2ccccc2s1)[C@H]1CC[C@H](N)CC1
- IC50 (Serine protease 1 [24]): 58000 nM
- IC50 (Prothrombin [4]): > 100000 nM

Structure (SMILES): CN[C@H](Cc1ccccc1)C(=O)N1CCC[C@H]1C(=O)N[C@@H](CC(=O)c1nc2ccccc2s1)[C@H]1CC[C@H](N)CC1
- IC50 (Serine protease 1 [24]): 22000 nM
- IC50 (Prothrombin [4]): > 100000 nM

Structure (SMILES): N=C(N)NCCC[C@H](NC(=O)[C@@H]1CCCN1C(=O)[C@H](CO)NS(=O)(=O)c1cccc2ccccc12)C(=O)c1nc2ccccc2s1
- Ki (Serine protease 1 [3]): 2.9 nM
- IC50 (Prothrombin [4]): 110 nM
- IC50 (Homo sapiens [5]): 34 nM
- Ki (Prothrombin [6]): 10 nM
- Ki (Prothrombin [7]): 0.78 nM
- Delta BP (Cavia porcellus [25]): -30%

Structure (SMILES): CN[C@H](Cc1ccccc1)C(=O)N1CCC[C@H]1C(=O)N[C@@H](Cc1ccc(C(=N)N)cc1)C(=O)c1nc2ccccc2s1
- IC50 (Serine protease 1 [10]): 540 nM
- Ki (Prothrombin [7]): 1400 nM

Structure (SMILES): CN[C@H](Cc1ccccc1)C(=O)N1CCC[C@H]1C(=O)N[C@@](C)(CCCN=C(N)N)C(=O)c1nc2ccccc2s1
- Ki (Serine protease 1 [3]): 6000 nM
- Ki (Prothrombin [26]): 430 nM
- IC50 (Prothrombin [4]): 3700 nM

Structure (SMILES): CN[C@H](Cc1ccccc1)C(=O)N1CCC[C@H]1C(=O)NC(CCCN=C(N)N)C(=O)c1nc2ccc(C(=O)OC)cc2s1 (stereo partly drawn)
- Ki (Serine protease 1 [3]): 31 nM
- ED50 (Canis familiaris): 0.47 mg/kg
- IC50 (Homo sapiens [5]): 39 nM
- ED25 (Cavia porcellus [16]): 13.4 mg/kg
- Delta BP (Cavia porcellus [17]): -16%
- ED50 (Oryctolagus cuniculus): 0.35 mg/kg

Structure (SMILES): N=C(N)NCCCC(NC(=O)[C@@H]1CCCN1C(=O)[C@@H](CC1CCCCC1)NCC(=O)O)C(=O)c1nc2ccccc2s1 (stereo partly drawn)
- Ki (Serine protease 1 [3]): 22 nM
- IC50 (Prothrombin [4]): 29 nM
- IC50 (Homo sapiens [5]): 16 nM
- Ki (Prothrombin [7]): 0.36 nM
- Delta BP (Cavia porcellus [17]): -47%

Structure (SMILES): CCS(=O)(=O)N[C@H](Cc1ccccc1)C(=O)N1CCC[C@H]1C(=O)NC(CCCN=C(N)N)C(=O)c1nc2ccccc2s1 (stereo partly drawn)
- Ki (Serine protease 1 [3]): 31 nM
- IC50 (Prothrombin [4]): 500 nM
- IC50 (Homo sapiens [5]): 46 nM
- Ki (Prothrombin [6]): 24 nM
- Ki (Prothrombin [7]): 24 nM
- Delta BP (Cavia porcellus [17]): -36%

Structure (SMILES): CN[C@H](Cc1ccccc1)C(=O)N1CCC[C@H]1C(=O)N[C@H](C=O)CCCNC(=N)N (stereo in doubt; 1b)
- Ratio (Cavia porcellus [27]): 43
- Ratio (Cavia porcellus [28]): 136
- Ki (Serine protease 1 [3]): 9.1 nM
- IC50 (Prothrombin [4]): 85 nM
- ED50 (Canis familiaris): 0.66 mg/kg
- IC50 (Homo sapiens [5]): 83 nM
- Ki (Prothrombin [6]): 18 nM
- Ki (Prothrombin [7]): 18 nM
- ED25 (Cavia porcellus [16]): 28.6 mg/kg
- Delta BP (Cavia porcellus [17]): -21%
- ED50 (Oryctolagus cuniculus): 0.21 mg/kg
